Measurements from paper PMC10082216 (Nature Communications, 2023).

Key:
[1] = read-out: Cmax in humans; at the lowest dose; ref not given; cited from earlier work
[2] = tested on: female gametocytes; experiment: 384-well microsphiltration readout 2 (anti-pfs25): retention of female gametocytes; type: cell-based; conditions: Plasmodium falciparum, read-out: IC50 during the screening campaign, only females stained
Description: Large scale microsphiltration was performed as previously described. Briefly, microsphiltration plates were prepared using a Biomek NX workstation (Beckman, cat. no. 989402) to load 15 μl of 25–45μm microspheres then 10 μl of a mixture of 30% 5–15μm and 70% (w/w) 15–25μm microspheres. The 384-well filter plates were then stored at -20 °C until use. In some of the 384-well microsphiltration plates leakage of microspheres occurred in one or more wells. The wells with leakages were sealed. Plates displaying more than 5 sealed wells were not used. Imaging plates were prepared by loading 30 μL of staining solution in each well of a collagen-coated plate. A different staining solution was used for each readout (1 and 2). Readout 1 counted both male and female gametocytes, using nucleic acid (Syto40, Thermo Fisher cat. no. S11351) and viability (MitoTracker Deep Red, Thermo Fisher cat. no. M22426) staining, and total RBCs using a cell membrane stain (CellMask Orange, Thermo Fisher cat. no. C10045). Readout 2 selectively quantified the retention and killing of female gametocytes. […] Imaging plates were incubated overnight at room temperature, then read in an OperaPhenix high-content confocal imaging system (Perkin Elmer, Waltham, MA, USA) and analyzed with Harmony high-content analysis software v. […]

[3] = Population PK modeling and simulation of TD-6450 (NONMEM); design: species or system human
Description: Data were pooled from two healthy volunteer studies, one single ascending dose (SAD) and the other multiple ascending dose (MAD). Observed concentration data were transformed into their natural logarithms and evaluated using nonlinear mixed-effects modeling in NONMEM v7.4 (Icon Development Solution, Ellicott City, MD). Pirana v3.0, Perl-speaks-NONMEM (PsN) v4.8.1, and Xpose version 4.7.1, were used for automation, model evaluation, and diagnostics during the model building process.
Different structural distribution models were evaluated (1-, 2-, and 3-compartment models) as well as different absorption models (first-order absorption and transit-compartment (n = 1–10) models). Relative bioavailability was fixed to unity for the population to evaluate inter-individual variability and the influence of covariates in the same parameter. […] Other biologically plausible covariate-parameter relationships (i.e. sex and age on all parameters, dose amount and duration of treatment on elimination clearance, absorption rate and relative bioavailability, concomitant food intake on absorption rate and relative bioavailability, and creatinine clearance on elimination clearance) were evaluated with a stepwise addition (p < 0.05) and elimination (p < 0.001) approach. All significant covariates in the forward step were evaluated with both linear and nonlinear functions, and the best-performing model was retained for the backward elimination step. Pharmacokinetic parameters were assumed to be log-normally distributed, and inter-individual variability (IIV) and inter-occasion variability (IOV) were implemented as exponential functions. Estimated IIV below 10% was removed in the final model, and IOV was estimated only on absorption parameters.
Model fit was evaluated primarily by the objective function value (OFV; calculated by NONMEM as proportional to −2 × log-likelihood of the data). Model discrimination between two hierarchical models was determined by a likelihood ratio test, based on the Chi-square distribution of the OFV (i.e. p-value < 0.05 corresponding to ΔOFV > 3.84, at a 1 degree of freedom difference). Goodness-of-fit was used to evaluate the descriptive performances of developed models. Prediction- and variability-corrected visual predictive checks (pvcVPC, n = 2000 simulations) were used to assess the predictive performance of developed models.

[4] = random effect, variance estimate
[5] = residual error, variance estimate
[6] = typical individual 80 kg, steady-state, high oral dose, fasting

## C[C@H]1Cc2c([nH]c3cc(Cl)c(F)cc23)[C@@]2(N1)C(=O)Nc1ccc(Cl)cc12 [NITD609, cipargamin]
[1]
  Cmax: 630 nM

## CNC(=O)N1C[C@@H](C)N(c2ccc(C(=O)Nc3ccc(-c4ccc(-c5c[nH]c([C@@H]6CCCN6C(=O)[C@@H](NC(=O)OC)C(C)C)n5)cc4)c(OC(F)(F)F)c3)cn2)C[C@@H]1C [TD-6450]
[2]
  IC50: 2030 ± 350 nM
[3]; above 240 mg (240 to 500 mg)
  decrease in relative bioavailability per 100 mg increase in dose: 24.7%
[3]; covariate relationship
  Dose on CL/F, population estimate (%RSE): 1.35 (17.9)
  Dose on F, SIR median (95%CI): -0.241 (-0.207 to -0.284)
  Dose on F, population estimate (%RSE): -0.247 (7.92)
  Food on F, SIR median (95%CI): 0.683 (0.475 to 0.885)
  Food on F, population estimate (%RSE): 0.685 (15.0)
  Food on MTT, SIR median (95%CI): 0.927 (0.696 to 1.19)
  Food on MTT, population estimate (%RSE): 0.933 (10.3)
  Time dep. F, SIR median (95%CI): 0.441 (0.355 to 0.569)
  Time dep. F, population estimate (%RSE): 0.439 (12.5)
[3]; food covariate
  higher bioavailability when administered with food: 68.5%
  longer absorption time when administered with food: 93.3%
[3]; [4]
  IIV CL/F, population estimate (%RSE): 0.0148 (21.5)
  IIV F, SIR median (95%CI): 0.151 (0.110 to 0.207)
  IIV F, population estimate (%RSE): 0.150 (16.7)
  IIV MTT, SIR median (95%CI): 0.0683 (0.0551 to 0.0830)
  IIV MTT, population estimate (%RSE): 0.0683 (10.3)
  IIV Vc/F, SIR median (95%CI): 0.0394 (0.0246 to 0.0514)
  IIV Vc/F, population estimate (%RSE): 0.0391 (17.3)
  IIV Vp/F, SIR median (95%CI): 0.0719 (0.0568 to 0.0919)
  IIV Vp/F, population estimate (%RSE): 0.0713 (12.9)
  IOV F, SIR median (95%CI): 0.0622 (0.0445 to 0.0794)
  IOV F, population estimate (%RSE): 0.0631 (13.9)
  IOV MTT, SIR median (95%CI): 0.0870 (0.0613 to 0.118)
  IOV MTT, population estimate (%RSE): 0.0866 (17.1)
[3]; [5]
  RUV, SIR median (95%CI): 0.0568 (0.0520 to 0.0624)
  RUV, population estimate (%RSE): 0.242 (4.48)
[3]; sampling importance resampling
  CL/F, SIR median (95%CI): 12.1 (10.8 to 13.6) L/h
  MTT, SIR median (95%CI): 2.30 (2.13 to 2.50) h
  Q/F, SIR median (95%CI): 28.5 (22.5 to 35.5) L/h
  Vc/F, SIR median (95%CI): 539 (464 to 626) L
  Vp/F, SIR median (95%CI): 445 (384 to 513) L
[3]; [6]
  CL/F, population estimate (%RSE): 12.1 (6.19) L/h
  MTT, population estimate (%RSE): 2.30 (4.14) h
  Q/F, population estimate (%RSE): 28.4 (11.4) L/h
  Vc/F, population estimate (%RSE): 537 (7.89) L
  Vp/F, population estimate (%RSE): 444 (7.36) L
